Holding throughout (test): Bliss excess, mean over the matrix (fraction); higher = more synergy
The test system of assay [1] is BFTC-909 (Kidney Carcinoma). In short, it runs like this: (§1)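 Bliss excess equals the observed combination effect minus the expected value EA + EB − EA·EB, where EA and EB are the effects of each agent alone. Combination Emax is the second-highest inhibition within the matrix. Inhibition was scaled from CellTiter-Glo 2.0 luminescence, with 0 set by vehicle wells and 1 by blank wells, after 72 hours of two-drug dosing of cells plated in 1536-well plates.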

The test system of assay [2] is CAL-33 (Oral Cavity Carcinoma). In short, it runs like this: as §1
Assay [3] has as its system Detroit562 (Head and Neck Carcinoma). The essentials:
as §1

In assay [4] the test system is ESS-1 (Other Solid Carcinomas). In short, it runs like this:
as §1

Assay [5] has as its system FTC-133 (Thyroid Gland Carcinoma). The essentials:
as §1

Assay [6] concerns KMRC-20 (Kidney Carcinoma). The essentials: as §1
Another assay has as its system KS-1 (Glioblastoma). The essentials:
as §1

In assay [7] the test system is KYAE-1 (Esophageal Adenocarcinoma). The essentials:
as §1

Another assay relates to LOXIMVI (Melanoma). The essentials: as §1
Assay [8] relates to MHH-CALL-2 (B-Lymphoblastic Leukemia). In short, it runs like this: as §1
Assay [9] concerns NCI-H1568 (Lung Adenocarcinoma). The essentials:
as §1

The test system of assay [10] is NUGC-4 (Gastric Carcinoma). The essentials:
as §1

The test system of assay [11] is OE21 (Esophageal Squamous Cell Carcinoma). The essentials: as §1
In assay [12] the test system is OVCAR-5 (Ovarian Carcinoma). In short, it runs like this: as §1
The test system of assay [13] is SAS (Oral Cavity Carcinoma). In short, it runs like this: as §1
In assay [14] the test system is SNU-16 (Gastric Carcinoma). In short, it runs like this: as §1
Assay [15] has as its system SW1710 (Bladder Carcinoma). The essentials: as §1
The test system of assay [16] is TGBC1TKB (Biliary Tract Carcinoma). The essentials:
as §1

For assay [17], the system named is WSU-NHL (B-Cell Non-Hodgkin's Lymphoma). The essentials:
as §1

Assay [18] has as its system YAPC (Pancreatic Carcinoma). The essentials:
as §1

The record followed here is the supplement of paper PMC11061612.

As to `Cn1cnc2c(F)c(Nc3ccc(Br)cc3Cl)c(C(=O)NOCCO)cc21` [Selumetinib] + C[C@@H]1COCCN1C2=NC(=NC(=C2)C3(CC3)[S@](=N)(=O)C)C4=C5C=CNC5=NC=C4 [AZD6738] (first compound max 10 µM, 7x7, partner max 10 µM), the Bliss excess in assay [1] was -0.025; in [2], 0.0115; in assay [3], -0.0438; in assay [4], 0.024; in [5], -0.0828; in assay [6] it was -0.0496. Besides, the Bliss excess is -0.0315 in the assay on KS-1 (Glioblastoma); -0.0243 in assay [7]; 0.0322 in the assay on LOXIMVI (Melanoma); 0.0085 in assay [8]; -0.0261 in [9]; 0.0069 in assay [10]. Besides, the Bliss excess is 0.0134 in [11]; -0.0236 in assay [12]; -0.012 in assay [13]; 0.0038 in assay [14]; -0.0481 in assay [15]; -0.0031 in assay [16]. In addition, the figures for the Bliss excess in assay [17] and in assay [18] were -0.0042 and -0.0019, respectively.

As for `CC(=O)Nc1cccc(-n2c(=O)n(C3CC3)c(=O)c3c(Nc4ccc(I)cc4F)n(C)c(=O)c(C)c32)c1` [Trametinib] + Cc1nc(-c2cn3c(n2)-c2ccc(-c4cnn(C(C)(C)C(N)=O)c4)cc2OCC3)n(C(C)C)n1 [Taselisib] (first compound max 1 µM, 7x7, partner max 10 µM), the Bliss excess is 0.182 in assay [1]; 0.104 in assay [2]; 0.108 in [3]; 0.114 in assay [4]; -0.046 in [5]; 0.0506 in assay [6]. Moreover, the Bliss excess in the assay with KS-1 (Glioblastoma) was found to be 0.015; in assay [7], 0.0462; in the assay on LOXIMVI (Melanoma), 0.137; in [8], 0.188; in assay [9] it was 0.131; in [10], 0.0347. Moreover, the Bliss excess was 0.147 in assay [11]; 0.105 in assay [12]; 0.145 in assay [13]; 0.257 in assay [14]; 0.016 in assay [15]; 0.0385 in assay [16]. The Bliss excess in assay [17] was determined as 0.0079; in assay [18], 0.246.

In the case of `CC1(C)CCC(CN2CCN(c3ccc(C(=O)NS(=O)(=O)c4ccc(NCC5CCOCC5)c([N+](=O)[O-])c4)c(Oc4cnc5[nH]ccc5c4)c3)CC2)=C(c2ccc(Cl)cc2)C1` [Venetoclax] + C1CN(CCC1(C(=O)N[C@@H](CCO)C2=CC=C(C=C2)Cl)N)C3=NC=NC4=C3C=CN4 [Capivasertib] (first compound max 1 µM, 7x7, partner max 3 µM), the Bliss excess in assay [1] was -0.0292; in assay [2], 0.0084; in [3], -0.0191; in [4], -0.0498; in [5], -0.0473; in [6], -0.0172. The Bliss excess is -0.0161 in the assay on KS-1 (Glioblastoma); -0.0582 in assay [7]; -0.0142 with LOXIMVI (Melanoma); -0.0702 in assay [8]; -0.0306 in assay [9]; -0.0673 in assay [10]. Moreover, the Bliss excess is -0.009 in [11]; -0.0649 in [12]; 0.0016 in assay [13]; -0.0496 in assay [14]; -0.0896 in assay [15]; -0.0535 in assay [16]. For the same compound, the values for the Bliss excess in assay [17] and in [18] were -0.0282 and -0.0461, respectively.

For the compound `CC1(C)CCC(CN2CCN(c3ccc(C(=O)NS(=O)(=O)c4ccc(NCC5CCOCC5)c([N+](=O)[O-])c4)c(Oc4cnc5[nH]ccc5c4)c3)CC2)=C(c2ccc(Cl)cc2)C1` [Venetoclax] + C=CCn1c(=O)c2cnc(Nc3ccc(N4CCN(C)CC4)cc3)nc2n1-c1cccc(C(C)(C)O)n1 [AZD1775] (first compound max 1 µM, partner max 1 µM), the Bliss excess was -0.0556 in assay [1]; -0.0631 in assay [2]; -0.0478 in [3]; 0.0835 in [4]; 0.0065 in [5]; -0.044 in assay [6]. Besides, the Bliss excess was 0.0134 in the assay on KS-1 (Glioblastoma); -0.033 in assay [7]; 0.0417 with LOXIMVI (Melanoma); -0.0382 in assay [8]; -0.0385 in assay [9]; -0.0733 in assay [10]. In addition, the Bliss excess is 0.0095 in assay [11]; 0.0332 in [12]; -0.0073 in assay [13]; -0.0478 in [14]; -0.0519 in [15]; -0.039 in assay [16]. Further, the Bliss excess in assay [17] was -0.0036; in assay [18], -0.0356.

Regarding `CC1(C)CCC(CN2CCN(c3ccc(C(=O)NS(=O)(=O)c4ccc(NCC5CCOCC5)c([N+](=O)[O-])c4)c(Oc4cnc5[nH]ccc5c4)c3)CC2)=C(c2ccc(Cl)cc2)C1` [Venetoclax] + CCN(CCO)CCCOc1ccc2c(Nc3cc(CC(=O)Nc4cccc(F)c4)[nH]n3)ncnc2c1 [AZD2811] (first compound max 1 µM, 7x7, partner max 1 µM), the Bliss excess in assay [1] is -0.0289; in assay [2], -0.0261; in assay [3], -0.013; in [4] it was 0.0506; in assay [5] it was 0.0192; in assay [6], -0.0273. The Bliss excess with KS-1 (Glioblastoma) was -0.0516; in assay [7], -0.0002; with LOXIMVI (Melanoma), 0.0139; in assay [8] it was -0.01; in assay [9] it was -0.0339; in assay [10] it was -0.0481. In addition, the Bliss excess was 0.0005 in [11]; -0.0482 in assay [12]; 0.009 in [13]; 0.0202 in assay [14]; 0.0032 in assay [15]; -0.0225 in assay [16]. Moreover, the Bliss excess in assay [17] is -0.0879; in assay [18] it was -0.0103.
